15 compounds from patent US9181266B2, “2-piperidin-1-yl-acetamide compounds for use as tankyrase inhibitors” (NOVARTIS AG, priority 2011, dated 2015) can be followed below.

Assay [1] addresses tankyrase 2 protein PARP domain, TNKS2P (Homo sapiens (Human), UniProt Q9H2K2). Description: TNKS2 autoparsylation assay (LC/MS detection of nicotinamide). Particulars: read-out: TNKS2 AP IC50, 20 nM enzyme, 250 μM β-NAD+, 60 min.
Assay [2] deals with Axin2 protein in SW480 cells. Description: Cellular ELISA assay of Axin2 protein stabilization. Type of assay: cell-based. Particulars: Homo sapiens, 24 hrs, read-out: Axin AC50. The method, then: Cellular ELISA Assay to Determine Compound Effect on Stabilizing the Axin2 Protein Compound activity in stabilizing the Axin2 protein was measured by Sandwich Enzyme-Linked Immuosorbent (ELISA) assay in the colorectal cell line SW480. 30,000 SW480 cells were seeded per well in 96-well plate and incubated overnight prior to compound treatment. […] Cells were then washed with 100 μL of cold Phosphate Buffer Saline (PBS), and lysed in 125 μl of cold 1× lysis buffer (Cell Signaling Technology, 9803) supplemented with Protease inhibitor (Roche, 11836170) and Phosphatase inhibitors (Sigma, P2850, P5726). For the ELISA assay, anti Axin-2 capture antibody (Strategic Diagnostics) antibody was diluted to a concentration of 1 μg/ml (1:1000) in Carbonate Coating buffer, pH 9.2 (Sigma, C3041-50CAP). […], of the diluted anti Axin-2 capture antibody per well was then used to coat the 96-well ELISA plate (Thermo Electron Corp., MicroLite 1 flat bottom plate #7571) overnight at 4° C. […] After blocking, plates were then washed three times with 300 μl/well of wash solution. 100 μL of prepared SW480 cell lysate was then added to each well and incubated at room temperature for 2 hours while shaking gently. After washing, 100 μL of Biotinylated anti-Axin2 antibody (CST, 2151) was added to each well and incubated room temperature for 2 hours. 100 μL of Streptavidin-HRP (R&D systems, DY998) diluted 1:200 in 1% BSA/PBS was then added in each well and incubate for 30 mins at R/T in the dark.
On the technique in general: ELISA stands for enzyme-linked immunosorbent assay.

The test system of assay [3] is Wnt ligand-induced signaling in HEK293 cells. The assay is described as follows: Wnt-responsive Super-TOpFlash (STF) luciferase reporter gene assay. Format: cell-based. Particulars: Homo sapiens, Wnt3A condition medium. The method, then: Cellular Reporter Gene Assay to Determine Compound Inhibition of Wnt Signaling Activity
Compound activity in inhibiting Wnt ligand-induced signaling was measured using a Wnt-responsive Super-TOpFlash (STF) luciferase reporter gene assay in HEK293 cells. On day 1 of the assay, cells were plated at a density of 8000 cells per well of 384-well plate in 25 μl medium containing 5% fetal bovine serum (FBS). On the second day, […] condition medium (CM) produced from mouse L cells was added to the cells to induce Wnt signaling, followed by addition of 5 μL of compounds each well in 10-point serial dilution. On the third day, the luciferase activity was measured by the Bright-Glo™ Luciferase Assay System following manufacture's protocol (Promega, E2620). The Inhibition was calculated as: (Maximum Wnt-induced signaling−Sample)/(Maximum Wnt-induced signaling−Background)*100. “Maximum Wnt-induced signaling” is the STF signal level induced by 20% Wnt3A CM without compound; and “Background” is the STF signal level without the addition of Wnt3A CM or compound.
Background: Reporter assays use an easily measured gene product as a stand-in for the process of interest.

Assay [4] relates to Non-small lung cancer ABC-1 cells. The assay is described as follows: Cellular proliferation assay (CellTiter-Glo). Type of assay: cell-based. The following applies: Homo sapiens, 72 h; ABC-1 cells, 3 days of compound treatment; read-out: ABC-1 IC50.
Procedure: Cellular Proliferation Assay to Determine Compound Inhibition of Cancer Cell Growth
Viable cells were measured after 3 days of compound treatment using the CellTiter-Glo assay (Promega, G7570). Assay was performed following the manufacture protocol.
The target of assay [5] is human tankyrase 1 PARP catalytic domain, TNKS1P (Homo sapiens (Human), UniProt O95271). The assay is described as follows: TNKS1 autoparsylation assay (LC/MS detection of nicotinamide). The following applies: read-out: TNKS1 AP IC50, 20 nM enzyme, 250 μM β-NAD+, 60 min.
Chain of human tankyrase 1 PARP catalytic domain, TNKS1P (O95271 1112-1317): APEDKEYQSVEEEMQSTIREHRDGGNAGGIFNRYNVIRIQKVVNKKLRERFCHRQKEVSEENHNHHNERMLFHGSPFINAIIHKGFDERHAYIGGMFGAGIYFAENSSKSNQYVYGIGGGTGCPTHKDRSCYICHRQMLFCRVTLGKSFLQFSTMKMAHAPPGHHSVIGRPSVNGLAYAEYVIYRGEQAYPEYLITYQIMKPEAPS

Chain of tankyrase 2 protein PARP domain, TNKS2P (Q9H2K2 959-1164): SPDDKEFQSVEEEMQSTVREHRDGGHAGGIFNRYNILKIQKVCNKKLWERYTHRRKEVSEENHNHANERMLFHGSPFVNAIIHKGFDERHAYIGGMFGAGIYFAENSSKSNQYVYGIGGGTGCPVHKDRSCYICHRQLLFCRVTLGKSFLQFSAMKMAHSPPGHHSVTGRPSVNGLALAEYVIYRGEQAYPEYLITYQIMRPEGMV

A word on the IC50: it is the point on the concentration scale where inhibition reaches its midpoint. Broadly, the AC50 is the concentration giving half of the maximal activity seen. On to `O=C(CN1CCC2(CC1)Cc1cc(F)ccc1C2=O)N(Cc1nc2c(c(=O)[nH]1)COCC2)CC1CC1` [Example 62, N-(Cyclopropylmethyl)-2-(5-fluoro-1-oxo-1,3-dihydrospiro[indene-2,4′-piperidine]-1′-yl)-N-((4-oxo-4,5,7,8-tetrahydro-3H-pyrano[4,3-d]pyrimidin-2-yl)methyl)acetamide], for which the IC50 in assay [1] stood at 4 ± 1 nM; in assay [3] it was 115 ± 17 nM; in assay [4], 470 nM; in assay [5], 17 ± 1 nM. Moreover, the AC50 in assay [2] turned out to be 560 ± 150 nM.
With `COc1ccc2c(c1)CC1(CCN(CC(=O)N(Cc3nc4c(c(=O)[nH]3)COCC4)CC3CC3)CC1)C2=O` [Example 63, N-(Cyclopropylmethyl)-2-(5-methoxy-1-oxo-1,3-dihydrospiro[indene-2,4′-piperidine]-1′-yl)-N-((4-oxo-4,5,7,8-tetrahydro-3H-pyrano[4,3-d]pyrimidin-2-yl)methyl)acetamide], the 50% inhibitory concentration (IC50) in assay [1] was 1 ± 1.4 nM; in assay [3], 11.9 ± 3.1 nM; in assay [4] it was 158 nM; in assay [5], 10 ± 1.4 nM. Further, in assay [2], the AC50 was 137 ± 31 nM.
In the case of `COc1ccc2c(c1)CC1(CCN(CC(=O)N(Cc3nc4c(c(=O)[nH]3)COCC4)CC(F)F)CC1)C2=O` [Example 64, N-(2,2-Difluoro-ethyl)-2-(5-methoxy-1-oxo-1,3-dihydrospiro[indene-2,4′-piperidine]-1′-yl)-N-((4-oxo-4,5,7,8-tetrahydro-3H-pyrano[4,3-d]pyrimidin-2-yl)methyl)acetamide], the IC50 amounted to 2.5 ± 0.7 nM in assay [1], 1.2 ± 0.5 nM in assay [3], 12 nM in assay [4] and 10 ± 1.4 nM in assay [5]. Moreover, the half-maximal activity concentration (AC50) in assay [2] amounted to 9 ± 3 nM.
As to `O=C(CN1CCC2(CCc3ccccc3C2=O)CC1)NCc1nc2c(c(=O)[nH]1)COCC2` [Example 65, 2-(1-oxo-3,4-dihydro-1H-spiro[naphthalene-2,4′-piperidine]-1′-yl)-N-((4-oxo-4,5,7,8-tetrahydro-3H-pyrano[4,3-d]pyrimidin-2-yl)methyl)acetamide], the half-inhibitory concentration (IC50) in assay [1] amounted to 760 ± 15 nM; in assay [3] it was 0.7 ± 0.2 nM; in assay [4] it was 26 nM; in assay [5] it was 3100 ± 400 nM. In addition, the AC50 in assay [2] turned out to be 12 ± 3 nM.
For `O=C(c1ccccc1)C1CCN(CC(=O)N(Cc2nc3c(c(=O)[nH]2)COCC3)CC(F)F)CC1` [Example 68, 2-(4-Benzoyl-piperidin-1-yl)-N-(2,2-difluoro-ethyl)-N-(4-oxo-3,5,7,8-tetrahydro-4H-pyrano[4,3-d]pyrimidin-2-ylmethyl)-acetamide] the same measures were 5 ± 1 nM, 5.2 ± 0.8 nM, 75 nM, 31 ± 1 nM and 41 ± 7 nM.
For the compound `O=C(c1ccc(Cl)cc1)C1CCN(CC(=O)N(Cc2nc3c(c(=O)[nH]2)COCC3)CC(F)F)CC1` [Example 69, 2-[4-(4-Chloro-benzoyl)-piperidin-1-yl]-N-(2,2-difluoro-ethyl)-N-(4-oxo-3,5,7,8-tetrahydro-4H-pyrano[4,3-c]pyrimidin-2-ylmethyl)-acetamide], the IC50 in assay [1] was 18 ± 1 nM; in assay [3] it was 20 ± 9 nM; in assay [4], 709 nM; in assay [5], 35 ± 4 nM. Moreover, the AC50 in assay [2] stood at 930 ± 450 nM.
Regarding `COc1ccccc1C(=O)C1CCN(CC(=O)N(Cc2nc3c(c(=O)[nH]2)COCC3)CC(F)F)CC1` [Example 72, N-(2,2-Difluoro-ethyl)-2-[4-(2-methoxy-benzoyl)-piperidin-1-yl]-N-(4-oxo-3,5,7,8-tetrahydro-4H-pyrano[4,3-d]pyrimidin-2-ylmethyl)-acetamide], the half-maximal inhibitory concentration (IC50) in assay [1] is 85 ± 20 nM; in assay [3], 8.7 ± 0.3 nM; in assay [4] it was 96 nM; in assay [5], 420 ± 110 nM. In assay [2], the AC50 turned out to be 52 ± 28 nM.
As to `O=C(c1cccc(OC(F)(F)F)c1)C1CCN(CC(=O)N(Cc2nc3c(c(=O)[nH]2)COCC3)CC(F)F)CC1` [Example 74, N-(2,2-Difluoro-ethyl)-N-(4-oxo-3,5,7,8-tetrahydro-4H-pyrano[4,3-d]pyrimidin-2-ylmethyl)-2-[4-(3-trifluoromethoxy-benzoyl)-piperidin-1-yl]-acetamide], the IC50 in assay [1] amounted to 38 ± 4 nM; in assay [3], 35.1 ± 3.4 nM; in assay [4], 590 nM; in assay [5] it was 155 ± 15 nM. The AC50 in assay [2] is 508 ± 50 nM.
Turning to `O=C(c1ccccn1)C1CCN(CC(=O)N(Cc2nc3c(c(=O)[nH]2)COCC3)CC2CC2)CC1` [Example 76, N-Cyclopropylmethyl-N-(4-oxo-3,5,7,8-tetrahydro-4H-pyrano[4,3-d]pyrimidin-2-ylmethyl)-2-[4-(pyridine-2-carbonyl)-piperidin-1-yl]-acetamide], the IC50 in assay [1] amounted to 32 ± 1 nM; in assay [3], 32 ± 10 nM; in assay [4], 236 nM; in assay [5], 105 ± 1 nM. Further, in assay [2], the AC50 was 176 ± 14 nM.
For `O=C(c1ccc(OCc2ccccc2)cc1)C1CCN(CC(=O)N(Cc2nc3c(c(=O)[nH]2)COCC3)CC2CC2)CC1` [Example 77] the same measures were 764 ± 51 nM, 55 ± 8 nM, 2710 nM, 1170 ± 50 nM and 4480 ± 90 nM.
With `O=C(CN1CCC(C(=O)N2CCc3ccccc3C2)CC1)NCc1nc2c(c(=O)[nH]1)COCC2` [Example 79, N-((4-Oxo-4,5,7,8-tetrahydro-3H-pyrano[4,3-d]pyrimidin-2-yl)methyl)-2-(4-(1,2,3,4-tetrahydroisoquinoline-2-carbonyl)piperidin-1-yl)acetamide], the half-maximal inhibitory concentration (IC50) in assay [1] came to 815 ± 28 nM; in assay [3], 6.5 ± 2.7 nM; in assay [4] it was 26 nM; in assay [5], 3020 ± 49 nM. For the same compound, the concentration at half-maximal activity (AC50) in assay [2] turned out to be 27 ± 3 nM.
As for `COc1ccc(C(=O)C2CCN(CC(=O)NCc3nc4c(c(=O)[nH]3)COCC4)CC2)cc1OC` [Example 90, 2-[4-(3,4-Dimethoxy-benzoyl)-piperidin-1-yl]-N-(4-oxo-3,5,7,8-tetrahydro-4H-pyrano[4,3-c]pyrimidin-2-ylmethyl)-acetamide], the IC50 in assay [1] is 18 nM; in assay [3] it was 10.3 ± 0.8 nM; in assay [4], 38 nM; in assay [5], 42 ± 2 nM. The concentration at half-maximal activity (AC50) in assay [2] was 20 ± 5 nM.
On to `O=C(CN1CCC(C(=O)c2ccc3c(c2)OCO3)CC1)NCc1nc2c(c(=O)[nH]1)COCC2` [Example 92, 2-[4-(Benzo[1,3]dioxole-5-carbonyl)-piperidin-1-yl]-N-(4-oxo-3,5,7,8-tetrahydro-4H-pyrano[4,3-c]pyrimidin-2-ylmethyl)-acetamide], for which the half-inhibitory concentration (IC50) in assay [1] was 43 nM; in assay [3], 9.1 ± 1.2 nM; in assay [4], 346 nM; in assay [5], 129 ± 1 nM. Moreover, the AC50 in assay [2] amounted to 154 ± 25 nM.
Consider `COc1ccc(C(=O)C2CCN(CC(=O)NCc3nc4c(c(=O)[nH]3)COCC4)CC2)cc1Cl` [Example 94, 2-[4-(3-Chloro-4-methoxy-benzoyl)-piperidin-1-yl]-N-(4-oxo-3,5,7,8-tetrahydro-4H-pyrano[4,3-d]pyrimidin-2-ylmethyl)-acetamide], for which the 50% inhibitory concentration (IC50) was 10.5 ± 0.7 nM in assay [1], 2.4 ± 0.3 nM in assay [3], 16 nM in assay [4] and 29 ± 3 nM in assay [5]. The AC50 in assay [2] amounted to 11 ± 2 nM.
For `CCOc1ccc(C(=O)C2CCN(CC(=O)NCc3nc4c(c(=O)[nH]3)COCC4)CC2)cc1F` [Example 95, 2-[4-(4-Ethoxy-3-fluoro-benzoyl)-piperidin-1-yl]-N-(4-oxo-3,5,7,8-tetrahydro-4H-pyrano[4,3-c]pyrimidin-2-ylmethyl)-acetamide], the IC50 is 16 ± 5 nM in assay [1], 6.6 ± 0.7 nM in assay [3], 32 ± 5 nM in assay [4] and 38 ± 3 nM in assay [5]. Besides, the concentration at half-maximal activity (AC50) in assay [2] is 26 ± 7 nM.
